Assays:
[1] = SANS form factor fits (core-shell cylinder); format: physicochemical; conditions: 3 wt% in D2O, 25°C, long cylindrical shell form factor; also: values in Å
Protocol: Measurements were performed using the LOQ instrument at ISIS Neutron and Muon Source, Oxfordshire, UK. LOQ operates in time‐of‐flight mode, with a wavelength range from 2.7 to 10.5 Å. Two detectors recorded simultaneously small and wide scattering merged in a typical range of wavenumbers q = 0.006 Å^−1 to 1.2 Å^−1. The main detector was fixed at 4 m from the sample, and the size of the beam was 8 mm diameter at the sample position. The samples were placed in quartz cuvettes and arranged on a multislot sample changer with temperature controlled by a thermal bath at 25°C. The background was subtracted and the scattering intensity normalized to the absolute scale cross calibrating with a polystyrene standard. Data reduction was performed using Mantid.
Cryo‐TEM was used to probe potential aggregation in solution above the CAC (3 wt% aqueous solution). […] The presence of such structures was also confirmed by SAXS and SANS data (Figure 3), which reveal form factor features that can be fitted using a core‐shell cylinder form factor, consistent with extended fibril structures. The cylinder radius is 25 Å, which is approximately equal to the estimated length of the molecule considering the lipid chain plus a pentapeptide in a β‐sheet conformation. […]

[2] = Cryo-TEM of aggregation in solution; format: physicochemical; conditions: 3 wt% aqueous solution, above the CAC
From the text: Cryo‐TEM was used to probe potential aggregation in solution above the CAC (3 wt% aqueous solution). […] The presence of such structures was also confirmed by SAXS and SANS data (Figure 3), which reveal form factor features that can be fitted using a core‐shell cylinder form factor, consistent with extended fibril structures. The cylinder radius is 25 Å, which is approximately equal to the estimated length of the molecule considering the lipid chain plus a pentapeptide in a β‐sheet conformation. […] For the SAXS data, it was necessary to include a contribution in the fits from unaggregated peptide, which gives rise to scattering at high q, described using a generalized Gaussian coil form factor (generalized refers to allowing the Flory exponent for the coil to vary from the value ν = 0.5 for an unperturbed coil). SANS data for 3 wt% solutions of lipoyl‐KTTKS in D2O can be fitted to a core‐shell cylinder form factor, consistent with SAXS, with fit parameters listed in Table S1. It was not necessary to allow for unaggregated monomer in fitting the SANS data, which may be because of the higher background and/or altered scattering contrast compared with SAXS. The cylinder radius and shell thickness obtained from the fits to the SANS data are in excellent agreement with the parameters obtained from the SAXS fit.
FIGURE 2 Cryo‐TEM image from a 3‐wt% aqueous solution of lipoyl‐KTTKS.

[3] = Chemical reduction with TCEP, effect on self-assembled structures; format: physicochemical; conditions: 3 wt% with 2.6 wt% TCEP, SAXS and SANS; cryo-TEM 1 wt% + 0.37 wt% TCEP
From the text: The ring‐opening of the lipoyl moiety can be achieved under reductive conditions. We examined the effect of chemical reduction on the self‐assembled structures of lipoyl‐KTTKS using TCEP [tris(2‐carboxyethyl)phosphine] as reductant. […] The SAXS data in Figure 3a show a considerable reduction in scattering intensity after addition of TCEP and the SANS profile in Figure 3b is barely above background after addition of TCEP. The SAXS data can be described using a form factor for monomer scattering with a power‐law intensity function at low q to account for a small fraction of irregular aggregates. The disruption of the fibrils upon TCEP addition was also confirmed by cryo‐TEM (images shown in Figure S1) because no aggregate structures were observed after addition of TCEP. Circular dichroism (CD) spectra shown in Figure 4 are characterized by a negative minimum in the CD spectrum at 196 nm along with the absence of defined features at higher wavelength, characteristic of a primarily disordered conformation. […] This is consistent with the observation that lipoyl‐KTTKS forms fibril‐like structures above a CAC detected by ThT binding to β‐sheet structure and as observed by cryo‐TEM, SAXS and SANS. […]

[4] = system: type I/III collagen production by HDFa cells; test: Collagen quantification, picrosirius red (Direct red 80) staining; format: cell-based, Human; conditions: 72 h incubation, different concentrations, absorbance 490 nm, ANOVA, n = 3
Protocol: To quantify collagen production, HDFa cells were seeded at a confluency of 1 × 10^4 cells/well into 96‐well plates in DMEM/F12 + 5 μg/mL of insulin and incubated for 3 days in DMEM/F12 without supplements as control, or DMEM/F12 + different concentrations of lipoyl‐KTTKS and conventional supplements (ascorbic acid 1 mM, TGFβ1 0.025 ng/mL and insulin 10 μg/mL). After incubation, the cells were washed three times with PBS and were fixed with cold ethanol 70%. The plate was transferred to a −80°C ultra‐freezer for 10 min and washed with water to remove any residual ethanol. After fixation, the collagen was incubated overnight in a solution containing Direct red 1 mg/mL in picric acid at 4°C. After this final incubation, the fixed cells were washed with distilled water to remove any residual dye, and the collagen and cells were then treated with 1‐mM NaOH for 10 min at room temperature. The resulting absorbance was measured at 490 nm using an Infinite F50 microplate reader (TECAN, Switzerland).
Because of the great commercial interest in KTTKS pentapeptides in cosmetic products with proposed antiaging properties resulting from cellular matrix stimulation, collagen production assays were performed using the technique of picrosirius red (commercial name, Direct red 80) staining (UV/vis absorbance) measurements.

[5] = cited from earlier work
From the text: (§1) Here, we investigate the structural properties, biocompatibility and collagen‐stimulating activity of a novel peptide amphiphile comprising a conjugate of lipoic acid to pentapeptide KTTKS, termed lipoyl‐KTTKS (Scheme 1).

[6] = system: UV-induced collagenase (MMP-1); conditions: cited from earlier work
From the text: as §1

melanin synthesis = conditions: cited from earlier work
From the text: as §1

tyrosinase = conditions: cited from earlier work
From the text: as §1

L length [1]: 800 Å
t shell thickness [1]: 9.10 Å
Aggregate structure seen by cryo-TEM [2]: short curly fibrils
Effect of addition of TCEP on self-assembled structures [3]: disrupts the fibril structures
Substance: lipoyl‐KTTKS [peptide amphiphile comprising a conjugate of lipoic acid to pentapeptide KTTKS]
Collagen production compared with the control or conventional stimulants [4]: no statistically significant increase
Cytocompatibility [5]: good cytocompatibility
Effect on UV-induced collagenase (MMP-1) activity [6]: inhibits
Effect on melanin synthesis (melanin synthesis): inhibits
Effect on tyrosinase activity (tyrosinase): inhibits

From article PMC11794677, “Self‐Assembly of a Conjugate of Lipoic Acid With a Collagen‐Stimulating Pentapeptide Showing Cytocompatibility and Wound Healing Properties, and Chemical and Photolytic Disassembly” (Journal of Peptide Science, 2025)
